In brackets after ≈: the same amount, converted by molar mass.
Key:
[1] = solubility in M. tuberculosis 7H9 growth medium; assay type: physicochemical; settings: Mtb 7H9 growth medium
Procedure: Prior to biological evaluation of the tdDCC hits, we tested their solubility in a standard buffer as well as in M. tuberculosis 7H9 growth medium. […] Regrettably, with 3.3 μM the least soluble compound is E1, making our most amplified and promising compound unsuitable for biological evaluation. We assessed the solubility in Mtb growth medium given that it is a complex, nutrient-rich environment with a distinct solubility profile. However, the trend continued, only seven hits are soluble at 8 μM or above, the remaining five compounds, including E1, were not eligible for antitubercular activity testing (Table 1).
Determination of in vitro anti-tubercular activity and solubility in 7H9 medium Anti-tubercular tests were performed as previously described .1 In brief, 7H9 complete medium (BD Difco; Becton Dickinson, Maryland,USA) supplemented with 10% OADC (BD), 0.2% glycerol, and 0.05% Tween80 as previously described ,3 was used to culture Mycobacterium tuberculosis (Mtb) strain H37Rv (ATCC 25618) carrying a mCherry -expressing plasmid (pCherry10 ).4 Cultures were harvested at mid-log phase and frozen in aliquots at – 80 °C. Prior to testing aliquots were thawed followed by centrifugation and the pellet was resuspended in 7H9 medium with 10% OADC (without glycerol and Tween80). This was further thoroughly resuspended by passing it through a syringe with a 26 -gauge needle to avoid clumping of the bacteria. 2×10^5 CFU (colony forming units) were then cultured in a total volume of 100 μl culture medium (triplicates) to test the non-precipitating compounds for the anti-tubercular activity at the concentrations indicated. For these assays, 96-well flat clear bottom black polystyrene microplates (Corning® CellBIND®, Merck, New York, USA) wer e used. Each plate had Rifampicin (at 1 μg/ml and 0.1 μg/ml) (National Reference Center, Borstel) as a reference compound. Plates were sealed with an air -permeable membrane (Porvair Sciences, Wrexham, UK) in a 37 °C incubator with mild agitation (TiMix5, Edmund Bühler, Germany). The activity of compounds was determined after 7 days by measuring the bacterial growth as relative light units (RLU) from the fluorescence intensity obtained at an excitation wavelength of 575 nm and an emission wavelength of 635 n m in a microplate reader (Synergy 2, BioTek Instruments, Vermont, USA). Two independent experiments (each in triplicates) were performed, and all values were normalized to untreated control sample (100%) in each experiment.
To obtain information regarding the toxicity of our compounds, their impact on the viability of human cells was investigated. HepG2 cells (2x10^4 cells per well) were seeded in 96 -well, flat-bottomed culture plates in 100 µL culture medium (DMEM containing 10% fetal calve serum, 1% penicillin -streptomycin). Twenty-four hours after seeding the cells, medium was removed and replaced by medium containing test compounds in a final DMSO concentration of 1%. Compounds were tested in duplicates at a single concentration or, for CC50 determination, at 8 concentrations that were prepared via 2 -fold serial dilutions in 1% DMSO/medium. Epirubicin and doxorubicin were used as positive controls in serial dilutions starting from 10 µM, and rifampicin was used as a negative control (at 100 µM). The living cell mass was determined 48 h after treatment with compounds by adding 0.1 volumes of 3 -(4,5-dimethylthiazol-2-yl)-2,5-diphenyltetrazolium bromide (MTT) solution (5 mg/mL sterile PBS) (Sigma, St. Louis, MO) to the wells. After incubating the cells for 30 min at 37 °C (atmosphere containing 5% CO2), medium was removed and MTT crystals were dissolved in 75 µL of a solution containing 10% SDS and 0.5% acetic acid in DMSO. The optical density (OD) of the samples was determined photometrically at 570 nm in a PHERAstar Omega plate reader (BMG labtech, Ortenberg, Germany). To obtain percent viability for each sample, their ODs were related to those of DMSO controls. […]

MtbIspE [2] = target: T1, MtbIspE (Mycobacterium tuberculosis, UniProt P9WKG7); test: MtbIspE binding study via MicroScale Thermophoresis (MST); settings: MST, 20 μM ligand, 200 nM MtbIspE, triplicate; qualitative
T1 sequence (P9WKG7 whole entry): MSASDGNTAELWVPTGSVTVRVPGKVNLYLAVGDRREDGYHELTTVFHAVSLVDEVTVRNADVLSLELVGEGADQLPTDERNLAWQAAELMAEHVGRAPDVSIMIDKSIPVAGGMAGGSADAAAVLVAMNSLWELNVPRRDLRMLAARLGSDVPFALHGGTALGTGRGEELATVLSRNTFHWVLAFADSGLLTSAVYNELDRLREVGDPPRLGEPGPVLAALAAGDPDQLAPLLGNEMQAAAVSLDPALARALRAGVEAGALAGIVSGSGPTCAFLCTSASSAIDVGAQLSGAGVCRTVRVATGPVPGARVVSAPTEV

MtbIspE [3] = target: T1, MtbIspE; test: MtbIspE binding study via thermal shift assay; settings: read-out: MtbIspE ΔTm at 20 μM
EcTolC = test: microbe, parasite or virus in culture; assay type: cell-based; settings: Escherichia coli, 18 h, LB medium, read-out: EcTolC %inh. At 50 μM
EcK12 = test: E. coli growth inhibition, wild-type strain K12; assay type: cell-based, Escherichia coli; settings: Escherichia coli, 18 h, LB medium, read-out: EcK12 %inh. At 50 μM
HepG2 cells = settings: read-out: HepG2 CC50; HepG2, 48 h, MTT
physchem = settings: aqueous with cosolvent or surfactant or cyclodextrin, kinetic from dmso stock, solubility 5% DMSO in PBS
in vitro = settings: human, HepG2 CC50, HepG2, 48 h, MTT
MtbIspE [4] = target: T1, MtbIspE; test: target-directed dynamic combinatorial chemistry (tdDCC), amplification of acylhydrazones in protein-templated vs blank DCL (HPLC-MS/MS, UV 310 nm); assay type: binding; settings: DCL-3, 24 h, 40 mol % MtbIspE; I1 and K1 integrated as one cluster
Procedure: In this study, we used MtbIspE as target protein and the reversible reaction of hydrazides and aldehydes to form dynamic combinatorial libraries (DCLs) of acylhydrazones. […] To accelerate the reaction at neutral pH, aniline was used as nucleophilic catalyst activating the aldehydes.[2],[4],[19] We analyzed the protein’s effect on the DCLs by comparing HPLC-MS/MS data of blank vs protein-templated (PT) experiments. The experiments spanned 3 days, with periodic sampling (every 2 h, followed by two samples per day after 8 h). The addition of NaOH to raise the pH and halt the reactions ensured the sample composition was preserved for analysis.[19] Templated experiments were conducted in duplicate, and the protein was denatured and removed prior to HPLC-MS/MS analysis.
The tdDCC hits and thus potential MtbIspE binders are amplified in the PT experiment compared to the blank experiment. The first step in the analysis of DCLs is the determination of the equilibrium since the amplification factors need to be calculated when the concentration of products is stable. To determine the evolution of the possible products, it is important to measure the characteristic UV absorbance of the acylhydrazones linker (310 nm) during the HPLC-MS/MS run. The resulting UV peaks are assigned to each product using the MS data (Figures S3–S6). The sum of all peak areas is normalized to 100% in order to obtain the respective relative peak area (RPA) for each product. The RPA values represent relative concentrations, determined at each time point of the blank experiment until the values stabilize. […] However, the rest of the compounds are out of range, making a visual inspection difficult. […] The other three libraries behaved in the same way, reaching equilibrium within 24 h and also maintained stable concentrations beyond (Figures S7–S9). To determine the tdDCC hits, we compared the RPAs of the PT experiments to the blanks at 24 h and set a threshold of at least 50% increase in compound formation. In total, 11 acylhydrazones passed our criteria, with amplification factors ranging from […] to 15.5, qualifying them for resynthesis and further evaluation (Figure 3). During the analysis of chromatograms, challenges arose concerning product identification. Some compound peaks were not neatly separated, forcing us to consider them in clusters, others presented two peaks, likely due to isomers, and were considered separately in our evaluation. Lastly, some compounds were detected by MS, but their respective UV signal interfered with the injection peak or was too low for integration (<1%), both in the blank and PT experiments. Consequently, we excluded these compounds from the analysis (Figure S3–S6).
To a well of a 24-well plate, containing Tris buffer (pH 7.0) were added hydrazides (300 μM each, in DMSO), aldehydes (100 μM each, in DMSO), aniline (20 mM, in DMSO), the protein MtbIspE (25 or 40 μM in Tris buffer at pH 7.0), and an additional amount of DMSO to reach a final concentration of 5% in the DCL with 0.5 mL of end-volume. The DCL was allowed to mix on a plate shaker at room temperature and was frequently monitored via LCMS-MS. For analysis, 30 μL of the corresponding library was mixed with 42 μL acetonitrile and 3 μL of NaOH (1 M), the mixture was centrifuged, and the supernatant was used for the analysis. PT experiments were run in duplicates and the protein was omitted for the blank experiments.
High-resolution mass (HRMS) of final products was determined by HPLC-MS/MS using a Thermo Scientific Q Exactive Focus Orbitrap LC -MS/MS system. All compounds were analyzed for purity by LCMS on Acquity UPLC-SQD system from Waters with a gradient elution of Water (Formic acid 0.1%)/Acetonitrile on an HSS - T3 column (2.1 x 50 mm, Waters), 1.8 µm, at 30°C, PDA detection between 240 -320 nm, and MS detection by simultaneous ES+/ES- ionization in a mass range of 150 -800. The flow is set to 0.9 ml/min, and the […]
gradient time is 1.5 min. […]

Structure (SMILES) | solubility in 7H9 [1] | MtbIspE binding at 20 μM (MtbIspE [2]) | ΔTm at 20 µM (MtbIspE [3]) | inhibition at 50 µM (EcTolC) | inhibition at 50 µM (EcK12) | CC50 (HepG2 cells) | solubility at 5 min (physchem) | CC50 (in vitro) | Amplification factors (DCL-3) (MtbIspE [4])
CC(C)Cc1cc(C(=O)N/N=C/c2cc(Cl)ccc2O)[nH]n1 [D1, (E)-N′-(5-Chloro-2-hydroxybenzylidene)-3-isobutyl-1H-pyrazole-5-carbohydrazide] | insoluble | No | < 0.3 °C | 28 ± 11% | 11 ± 4% | 7.9 ± 0.8 µM | 22 ± 9 µM (≈ 7.06 µg/mL) | < 10 µM | 
O=C(N/N=C/c1cc(Cl)ccc1O)c1cccc(Cl)c1 [K1, (E)-3-Chloro-N′-(5-chloro-2-hydroxybenzylidene)benzohydrazide] | insoluble | consistently demonstrated binding across all measurements and Yes | 0.7 °C |  | < 10% | 7 ± 3 µM | 25 ± 4 µM (≈ 7.73 µg/mL) | < 10 µM | 2.0
